# Tests used:
# Type in all cases: functional
# [1] = species: Cavia porcellus; assay: Evaluated for in vitro antiplatelet activity against guinea pig platelet rich plasma aggregated by […] (ADP)
# [2] = species: Cavia porcellus; assay: Evaluated for in vitro antiplatelet activity against guinea pig platelet rich plasma aggregated by arachidonic acid (AA)
# [3] = species: Cavia porcellus; assay: In vitro antiplatelet activity against guinea pig platelet rich plasma aggregated by collagen
Compound,IC50 [1] [µM],IC50 ([2]; read-out: IC50) [µM],IC50 ([3]; read-out: IC50) [µM],IC50 [3] [µM],IC50 [2] [µM]
Nc1ncc2c(n1)-c1ccccc1OC2N1CCCC1 (stereo not given),750,400,,,
c1ccc2c(c1)OC(N1CCCC1)c1cnc(N3CCCC3)nc1-2 (stereo not given),200,80,170,,
c1ccc2c(c1)OC(N1CCCCC1)c1cnc(N3CCOCC3)nc1-2 (stereo not given),,,200,,
c1ccc2c(c1)OC(N1CCCCC1)c1cnc(N3CCCC3)nc1-2 (stereo not given),,90,,,
CSc1ncc2c(n1)-c1ccccc1OC2N1CCCC1 (stereo not given),180,85,,,
CC(=O)Oc1ccccc1C(=O)O [ASPIRIN],,,,48,61

# More lines, now with the values ahead:
IC50 [1] [µM],IC50 ([2]; read-out: IC50) [µM],IC50 ([3]; read-out: IC50) [µM],IC50 [3] [µM],IC50 [2] [µM],Compound
,95,60,,,c1ccc2c(c1)OC(N1CCOCC1)c1cnc(N3CCOCC3)nc1-2 (stereo not given)
,25,60,,,c1ccc2c(c1)OC(N1CCOCC1)c1cnc(N3CCCCC3)nc1-2 (stereo not given)
250,430,80,,,c1ccc2c(c1)OC(N1CCCC1)c1cnc(N3CCOCC3)nc1-2 (stereo not given)
,75,50,,,c1ccc2c(c1)OC(N1CCOCC1)c1cnc(N3CCCC3)nc1-2 (stereo not given)
